Activity calls are given as the source filed them. The calls are words filed in the database; no cut-off is given here.
What was measured:
M14 = test: Antiproliferative activity against human M14 cells after 72 hrs by MTT assay; format: functional, cell-based; details: M14, 72 h
A-375 [1] = test: Antiproliferative activity against human A375 cells after 72 hrs by MTT assay; format: functional, cell-based; details: A-375, 72 h
WM164 = test: Antiproliferative activity against human WM164 cells after 72 hrs by MTT assay; format: functional, cell-based; details: WM164, 72 h
[2] = Intrinsic clearance in CD-1 mouse liver microsomes in presence of NADPH regenerating system measured up to 4 hrs by UPLC-MS analysis; format: ADME, Microsome; details: read-out: CLH
Tubulin (Homo sapiens) [3] = biological target: T1, Tubulin (Homo sapiens) (UniProt P68371+Q9H4B7+P0DPH7+P68366+Q13509+Q71U36+P04350+Q3ZCM7+P07437+P68363+Q9BQE3+Q6PEY2+Q13885+Q9BVA1+Q9BUF5); test: Disruption of microtubule network in human WM164 cells assessed as microtubule disassembly at 100 nM after 18 hrs by DAPI staining based fluorescence confocal microscopic method; format: cell-based
PC-3 [4] = test: Antiproliferative activity against human PC3 cells; format: functional, cell-based
A-375 [5] = test: Antimigratory activity in human A375 cells assessed as wound closure at 25 nM after 22 hrs by scratch migration assay (reference value: 60.7 +/- 3.5%); format: functional
DU-145 = test: Antiproliferative activity against human DU145 cells; format: functional, cell-based
[6] = Half-life in human liver microsomes in presence of NADPH regenerating system; format: ADME, Microsome
[7] = Half-life in CD-1 mouse liver microsomes in presence of NADPH regenerating system measured up to 4 hrs by UPLC-MS analysis; format: ADME, Microsome
Tubulin (Bos taurus) [8] = biological target: T2, Tubulin (Bos taurus) (UniProt Q6B856+Q862L2+Q862F3); test: Inhibition of bovine brain tubulin polymerization at 10 uM measured at time interval of 1 mins for 20 mins by spectrophotometric analysis
[9] = Resistance index, ratio of IC50 for human PC3-TxR cells to IC50 for human PC3 cells; format: functional
[10] = Half-life in rat liver microsomes pre-incubated for 15 mins followed by addition of NADPH regenerating system by LC-MS analysis; format: ADME, Microsome
[11] = Antiproliferative activity against human PC3-TxR cells; format: functional, cell-based
[12] = Antiproliferative activity against human DU145-TxR cells; format: functional, cell-based
A-375 [13] = test: Antimigratory activity in human A375 cells assessed as wound closure at 5 nM after 22 hrs by scratch migration assay (reference value: 60.7 +/- 3.5%); format: functional
Tubulin (Homo sapiens) [14] = biological target: T1, Tubulin (Homo sapiens); test: Disruption of microtubule network in human WM164 cells assessed as microtubule fragmentation at 100 nM after 18 hrs by DAPI staining based fluorescence confocal microscopic method; format: cell-based
RPMI-7951 = test: Antimigratory activity in human RPMI7951 cells assessed as wound closure at 25 nM after 18 hrs by scratch migration assay (reference value: 71.8 +/- 1.8%); format: functional
A-375 [15] = test: Inhibition of anchorage-dependent colony formation in human A375 cells assessed as decrease in colony number at 5 nM after 12 days by crystal violet-staining based assay relative to control; format: functional; details: A-375, 288 h
[16] = Intrinsic clearance in human liver microsomes in presence of NADPH regenerating system; format: ADME, Microsome; details: read-out: CLH
[17] = Resistance index, ratio of IC50 for human DU145-TxR cells to IC50 for human DU145 cells; format: functional
[18] = Intrinsic clearance in rat liver microsomes pre-incubated for 15 mins followed by addition of NADPH regenerating system by LC-MS analysis; format: ADME, Microsome; details: read-out: CLH
Tubulin (Homo sapiens) [19] = biological target: T1, Tubulin (Homo sapiens); test: Effect on microtubule network in human WM164 cells assessed as formation of dense and aggregated bundles of microtubules at 100 nM after 18 hrs by DAPI staining based fluorescence confocal microscopic method; format: cell-based
Tubulin (Homo sapiens) [20] = biological target: T1, Tubulin (Homo sapiens); test: Effect on microtubule network in human WM164 cells assessed as induction of polymerization at 100 nM after 18 hrs by DAPI staining based fluorescence confocal microscopic method; format: cell-based
Tubulin (Bos taurus) [21] = biological target: T2, Tubulin (Bos taurus); test: Induction of bovine brain tubulin polymerization at 10 uM measured at time interval of 1 mins for 20 mins by spectrophotometric analysis
[22] = Antitumor activity against human PC3-TxR cells xenografted in nude mouse assessed as tumor growth inhibition at 15 mg/kg administered every other day for 3 weeks relative to control; format: functional; details: 504 h, read-out: TGI
A-375 [23] = test: Antitumor activity against human A375 cells xenografted in nude mouse assessed as tumor growth inhibition at 15 mg/kg, ip administered once daily for 14 days and measured after 20 days by caliper method relative to control; format: functional; details: A-375, ip, read-out: TGI
PC-3 [24] = test: Antitumor activity against human PC3 cells xenografted in nude mouse assessed as tumor growth inhibition at 15 mg/kg administered every other day for 3 weeks relative to control; format: functional; details: PC-3, 504 h, read-out: TGI
[25] = Antitumor activity against human PC3-TxR cells xenografted in nude mouse assessed as reduction in tumor weight at 15 mg/kg administered every other day for 3 weeks relative to control; format: functional; design: scale not given: the % may be the effect or the level left

Structure (SMILES)	IC50 (M14) [nM]	IC50 (A-375 [1]; read-out: IC50) [nM]	IC50 (WM164) [nM]	also measured
COc1cc(C(=O)c2c[nH]c(-c3c[nH]c4cc(O)ccc34)n2)cc(OC)c1OC	> 1000	> 1000	> 1000	–
COc1cc(C(=O)c2c[nH]c(-c3c[nH]c4cccc(OC)c34)n2)cc(OC)c1OC	> 1000	> 1000	> 1000	–
COc1cc(C(=O)c2c[nH]c(-c3c[nH]c4ccc(OCc5ccccc5)cc34)n2)cc(OC)c1OC	> 1000	> 1000	> 1000	–
COc1cc(C(=O)c2c[nH]c(-c3c[nH]c4cccc(C)c34)n2)cc(OC)c1OC	1.7	1.8	3.2	CLint scaled [2]: 23.6 mL/min/kg; Activity (Tubulin (Homo sapiens) [3]): Active; IC50 (PC-3 [4]): 5.2 nM; Activity (A-375 [5]): 25.9%; IC50 (DU-145): 13.8 nM; half-life [6]: 6.7 h; half-life [7]: 2.42 h; inhibition (Tubulin (Bos taurus) [8]): Active; Ratio IC50 [9]: 0.8; half-life [10]: 1.8 h; IC50 [11]: 3.9 nM; IC50 [12]: 25.2 nM; Activity (A-375 [13]): 48.5%; Activity (Tubulin (Homo sapiens) [14]): Active; Activity (RPMI-7951): 35.6%; inhibition at 0.005 µM (A-375 [15]): 59%; CLint scaled [16]: 3.1 mL/min/kg; Ratio IC50 [17]: 1.8; CLint scaled [18]: 26 mL/min/kg
COc1cc(C(=O)c2c[nH]c(-c3ccc4[nH]ccc4c3)n2)cc(OC)c1OC	18.5	8.6	6.1	–
COc1cc(C(=O)c2c[nH]c(-c3c[nH]c4cc(F)ccc34)n2)cc(OC)c1OC	5.8	17.5	10.3	–
COc1cc(C(=O)c2c[nH]c(-c3ccc4cc[nH]c4c3)n2)cc(OC)c1OC	6.1	8	3.8	CLint scaled [2]: 10.3 mL/min/kg; half-life [6]: 7.61 h; half-life [7]: 5.56 h; half-life [10]: 15.2 h; CLint scaled [16]: 2.73 mL/min/kg; CLint scaled [18]: 3.1 mL/min/kg
COc1ccc2c(-c3nc(C(=O)c4cc(OC)c(OC)c(OC)c4)c[nH]3)c[nH]c2c1	> 1000	793	> 1000	–
COc1cc(C(=O)c2c[nH]c(-c3c[nH]c4c(OC)cccc34)n2)cc(OC)c1OC	34.1	38.3	115	–
COC(=O)c1ccc2c(-c3nc(C(=O)c4cc(OC)c(OC)c(OC)c4)c[nH]3)c[nH]c2c1	> 1000	> 1000	> 1000	–
CC(=O)O[C@@]12CO[C@@H]1C[C@H](O)[C@@]1(C)C(=O)[C@H](O)C3=C(C)[C@@H](OC(=O)[C@H](O)[C@@H](NC(=O)OC(C)(C)C)c4ccccc4)C[C@@](O)([C@@H](OC(=O)c4ccccc4)[C@H]21)C3(C)C [DOCETAXEL ANHYDROUS]	–	–	–	Activity (Tubulin (Homo sapiens) [19]): Active; Activity (Tubulin (Homo sapiens) [20]): Active; IC50 [12]: 352 nM; Ratio IC50 [17]: >3523; Activity (Tubulin (Bos taurus) [21]): Active
COc1cc(C(=O)c2c[nH]c(-c3c[nH]c4cc(OCc5ccccc5)ccc34)n2)cc(OC)c1OC	> 1000	> 1000	> 1000	–
COc1cc(C(=O)c2c[nH]c(-c3c(-c4ccccc4)[nH]c4ccccc34)n2)cc(OC)c1OC	> 1000	> 1000	> 1000	–
COc1cc(C(=O)c2c[nH]c(-c3c[nH]c4cc(Br)ccc34)n2)cc(OC)c1OC	41.2	67.8	55.4	–
COc1cc(C(=O)c2c[nH]c(-c3c[nH]c4ccc(C)cc34)n2)cc(OC)c1OC	177	278	552	–
COc1cc(C(=O)c2c[nH]c(-c3c[nH]c4cccc(F)c34)n2)cc(OC)c1OC	8.2	7.2	–	–
COc1cc(C(=O)c2c[nH]c(-c3c[nH]c4ccc(Br)cc34)n2)cc(OC)c1OC	104	164	442	–
COc1cc(C(=O)c2c[nH]c(-c3c[nH]c4cc(C)ccc34)n2)cc(OC)c1OC	21.7	21.1	23.7	–
COc1cc(C(=O)c2c[nH]c(-c3c[nH]c4c(C)cccc34)n2)cc(OC)c1OC	10.8	13.1	61.3	–
COc1cc(C(=O)c2c[nH]c(-c3c[nH]c4cccc(OCc5ccccc5)c34)n2)cc(OC)c1OC	> 1000	> 1000	> 1000	–
COc1cc(C(=O)c2c[nH]c(-c3c[nH]c4c(OCc5ccccc5)cccc34)n2)cc(OC)c1OC	> 1000	> 1000	> 1000	–
CC(=O)O[C@H]1C(=O)[C@@]2(C)[C@H]([C@H](OC(=O)c3ccccc3)[C@]3(O)C[C@H](OC(=O)[C@H](O)[C@@H](NC(=O)c4ccccc4)c4ccccc4)C(C)=C1C3(C)C)[C@]1(OC(C)=O)CO[C@@H]1C[C@@H]2O [PACLITAXEL]	–	–	–	inhibition in vivo at 15 mg/kg [22]: 37.8%; inhibition in vivo at 15 mg/kg (A-375 [23]): 68.6%; IC50 [12]: > 1000 nM; inhibition in vivo at 15 mg/kg (PC-3 [24]): 101%; Activity [25]: 34.5%
COc1cc(C(=O)c2c[nH]c(-c3cccc4cc[nH]c34)n2)cc(OC)c1OC	241	286	436	–
COc1cc(C(=O)c2c[nH]c(-c3c[nH]c4ccc(Cl)cc34)n2)cc(OC)c1OC	64.9	61.8	160	–
COc1cc(C(=O)c2c[nH]c(-c3c[nH]c4ccc(O)cc34)n2)cc(OC)c1OC	> 1000	> 1000	> 1000	–
COc1cc(C(=O)c2c[nH]c(-c3c[nH]c4cccc(Br)c34)n2)cc(OC)c1OC	10.4	13.8	67.1	–
COc1cc(C(=O)c2c[nH]c(-c3c[nH]c4ccc(F)cc34)n2)cc(OC)c1OC	18	19.2	80.9	–
COc1cc2c(c(OC)c1OC)-c1ccc(OC)c(=O)cc1[C@@H](NC(C)=O)CC2 [COLCHICINE]	16.6	–	10.8	IC50 (PC-3 [4]): 10.4 nM; Activity (A-375 [5]): 20.7%; IC50 (DU-145): 35.5 nM; Ratio IC50 [9]: 3.6; IC50 [11]: 37.4 nM; IC50 [12]: > 1000 nM; Activity (A-375 [13]): 46%; Activity (RPMI-7951): 42.8%; inhibition at 0.005 µM (A-375 [15]): 24.7%; IC50 (A-375 [1]): 14.1 nM; Ratio IC50 [17]: >28

— ChEMBL document CHEMBL4364286, “Structure-Guided Design, Synthesis, and Biological Evaluation of (2-(1H-Indol-3-yl)-1H-imidazol-4-yl)(3,4,5-trimethoxyphenyl) Methanone (ABI-231) Analogues Targeting the Colchicine Binding Site in Tubulin” (J Med Chem, 2019)
